Measurements taken from patent US7709242B2, “L-tyrosine producing bacterium and a method for producing L-tyrosine” (Ajinomoto Co., Inc., priority 2004, dated 2010).

Assays:
[1] = molecular target: T1, PDH containing the T260I mutation (Escherichia coli, UniProt P07023, T260I); assay: PDH activity in crude enzyme solution at tyrosine concentrations, T260I mutant; format: biochemical; conditions: in the presence of 800 μM tyrosine; strain harboring PDH with T260I
T1 construct: EcoRI-CpoI fragment containing no mutation excised from pSTVtyrA(W) was connected to the vector fragment of EcoRI-CpoI-digested pSTVtyrA(mut); made in house; host or cells: Escherichia coli W3110 ΔtyrR,tyrA, plasmid pSTVtyrA(T260I); crude enzyme solution
T1 sequence (P07023 whole entry T260I, the tested form may be a part): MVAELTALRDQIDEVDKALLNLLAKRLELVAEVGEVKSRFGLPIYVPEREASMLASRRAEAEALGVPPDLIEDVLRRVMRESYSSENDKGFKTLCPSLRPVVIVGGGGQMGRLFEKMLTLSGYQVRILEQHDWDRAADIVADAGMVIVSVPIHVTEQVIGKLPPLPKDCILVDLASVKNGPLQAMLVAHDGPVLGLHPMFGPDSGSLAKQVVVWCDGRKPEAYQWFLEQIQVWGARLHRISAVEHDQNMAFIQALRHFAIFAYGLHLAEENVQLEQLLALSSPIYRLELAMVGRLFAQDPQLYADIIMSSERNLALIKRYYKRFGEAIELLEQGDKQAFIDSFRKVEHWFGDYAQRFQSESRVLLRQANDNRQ
Experimental: (§1) A strain containing mutant 7 (257/265), a strain containing mutant 6 (254/269), both shown in Table 3, and a strain containing the T260I mutation shown in Table 2 were cultured at 37° C. for 15 hours in LB medium, and after the culture, the resulting culture was centrifuged to collect bacterial cells. Then, after the bacterial cells were washed twice with 50 mM Tris-HCl (pH 7.5) and suspended in 50 mM Tris-HCl (pH 7.5) containing 20% glycerol on ice, a crude enzyme solution was prepared by repeating 30 second-ultrasonication 80 times. PDH activity was measured according to the method described in Biochemistry. 1990 Nov. 6; 29(44): 10245-54. That is, a reaction was carried out at 30° C. for 10 minutes in 50 mM Tris-HCl (pH 7.5) containing 0.25 mM prephenate, 1 mM EDTA, 1 mM DTT, and 2 mM NAD^+, and NADH was measured at an absorption wavelength of 340 nm. A protein assay was carried out by the Bradford method. […] However, the PDH activity of the strain harboring the PDH with the 257/265 mutation could not be measured even though the L-tyrosine yield was high.

[2] = molecular target: T2, PDH of W3110 ΔtyrR,tyrA/pSTVtyrA-1 strain (tyrA(mut), P100S/T260I) (Escherichia coli, UniProt P07023, P100S/T260I); assay: PDH activity in crude enzyme solution at L-tyrosine concentrations, pSTVtyrA-1 strain; format: biochemical; conditions: in the presence of 800 μM L-tyrosine
T2 construct: The resulting mutated fragment was then ligated to pSTV28; made in house; host or cells: Escherichia coli W3110 ΔtyrR,tyrA (endogenous tyrA disrupted), plasmid pSTV28; crude enzyme solution
T2 sequence (P07023 whole entry P100S/T260I, the tested form may be a part): as the sequence (P07023 whole entry T260I, the tested form may be a part) above, with P100S counted along it
Experimental: (§2) W3110 ΔtyrR,tyrA/pSTVtyrA-1, -2, -5, -10, and -24 strains were cultured at 37° C. for 15 hours in a LB medium, respectively and each culture solution was centrifuged to collect bacterial cells. Next, after the bacterial cells were washed twice with 50 mM Tris-HCl (pH 7.5) and suspended in 50 mM Tris-HCl (pH 7.5) containing 20% glycerol on ice, a crude enzyme solution was prepared by repeating 30 second-ultrasonication 80 times. Then, the PDH activity was measured according to the method described in Biochemistry. 1990 Nov. 6; 29(44): 10245-54. That is, the enzyme reaction was performed at 30° C. for 10 minutes in 50 mM Tris-HCl (pH 7.5) containing 0.25 mM prephenate, 1 mM EDTA, 1 mM DTT, and 2 mM NAD, and the generated NADH was measured at an absorption wavelength of 340 nm. A protein assay was carried out by the Bradford method. […] Hereinafter, this tyrA gene inserted into pSTVtyrA-1 is referred to as tyrA(mut).
The nucleotide sequence of the tyrA(mut) gene was determined according to a standard method. In this mutant, proline at position 100 and threonine at position 260 were replaced by serine and isoleucine, respectively. […] The obtained strains were cultured and L-tyrosine production was evaluated. […]

[3] = test system: PDH of strains carrying pSTVtyrA-2, -5, -10, and -24; assay: PDH activity in crude enzyme solution at L-tyrosine concentrations, pSTVtyrA-2, -5, -10, -24 strains; format: biochemical, Escherichia coli; conditions: in the presence of 100 μM L-tyrosine
Experimental: as §2

[4] = molecular target: T3, PDH containing the 254/269 mutations (mutant 6, A254G/E269Y) (Escherichia coli, UniProt P07023, A254G/E269Y); assay: PDH activity in crude enzyme solution at tyrosine concentrations, 254/269 mutant; format: biochemical; conditions: in the presence of 800 μM tyrosine; strain harboring PDH with 254/269 mutations
T3 construct: amplify a full length fragment of the tyrA gene which has mutations introduced; made in house; host or cells: Escherichia coli W3110 ΔtyrR,tyrA, plasmid pSTV28 (SmaI site); crude enzyme solution
T3 sequence (P07023 whole entry A254G/E269Y, the tested form may be a part): as the sequence (P07023 whole entry T260I, the tested form may be a part) above, with A254G, I260T, E269Y counted along it
Experimental: as §1

[5] = molecular target: T4, wild-type PDH (prephenate dehydrogenase) (Escherichia coli, UniProt P07023); assay: PDH activity in crude enzyme solution at L-tyrosine concentrations, wild-type PDH; format: biochemical; conditions: in the presence of 100 μM L-tyrosine; strain carrying wild-type PDH
T4 construct: made in house; host or cells: Escherichia coli (crude enzyme solution of sonicated cells)
T4 sequence (P07023 whole entry): as the sequence (P07023 whole entry T260I, the tested form may be a part) above, with I260T counted along it
Excerpt: Such mutant PDH can be obtained by introducing amino acid substitutions into wild-type PDHs and selecting a PDH which is not subject to feedback inhibition by L-tyrosine due to the amino acid substitution-introduced PDHs. Specifically, nucleotide substitutions causing amino acid substitutions are introduced into a DNA encoding PDH (e.g., SEQ ID NO: 1) by the use of, for example, site-directed mutagenesis using PCR or the like, and an Escherichia bacterium, preferably an Escherichia bacterium in which a wild-type PDH gene is disrupted is transformed with the mutated DNA. The PDH activity of the bacterium is then measured in the presence and absence of L-tyrosine, and a strain in which PDH is resistant to feedback inhibition by L-tyrosine is selected. PDH activity can be measured according to the method described in Biochemistry. 1990 Nov. 6; 29(44): 10245-54.
W3110 ΔtyrR,tyrA/pSTVtyrA-1, -2, -5, -10, and -24 strains were cultured at 37° C. for 15 hours in a LB medium, respectively and each culture solution was centrifuged to collect bacterial cells. […] Then, the PDH activity was measured according to the method described in Biochemistry. […] That is, the enzyme reaction was performed at 30° C. for 10 minutes in 50 mM Tris-HCl (pH 7.5) containing 0.25 mM prephenate, 1 mM EDTA, 1 mM DTT, and 2 mM NAD, and the generated NADH was measured at an absorption wavelength of 340 nm. […]

[6] = molecular target: PDH (encoded by the tyrA gene) (Escherichia coli, UniProt P07023); conditions: Biochemistry. 1985 Feb. 26; 24(5): 1116; cited from earlier work
Sequence of PDH (encoded by the tyrA gene) (P07023 whole entry): as the sequence (P07023 whole entry T260I, the tested form may be a part) above, with I260T counted along it

Structure (SMILES): N[C@@H](Cc1ccc(O)cc1)C(=O)O [L-tyrosine]
- inhibition of PDH activity [1]: almost no inhibition
- inhibition of PDH activity [2]: almost no inhibition
- inhibition of PDH activity [3]: strongly inhibited
- inhibition of PDH activity [4]: almost no inhibition
- inhibition of PDH activity [5]: strongly inhibited
- concentration of L-tyrosine at which PDH is inhibited (as low as) [6]: 300 µM
